# Data reported in patent US11415579B2, “Assay for measuring a rate of reaction between a target and a ligand candidate” (Imperial College Innovations Ltd., priority 2016, dated 2022).
# Experiments:
# Cdk2(T182C) (C177A) = biological target: T1, Cdk2(T182C) (C177A) (Homo sapiens, UniProt P24941, C177A/T182C); assay: Kinetic thiol consumption assay with Cdk2 mutant T182C; assay type: binding; set-up: key to Rate enhancement, Cdk2 T182C: rate constant with Cdk2 ÷ rate constant with model thiol (fold); settings: additional mutation C177A; for Rate constant with Cdk2 T182C: Protein: Cdk2, cysteine position T182C, in h^-1
# T1 construct: poly-histidine; made in house; host or cells: E. coli
# Outline: (§1)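 His-tagged single-surface-cysteine Cdk2 mutants (C177A background) from E. coli, 5 μM in degassed phosphate buffer pH 8, pre-treated with immobilized TCEP beads. Fluorescence (ex/em 380/470 nm) read after 1 h at room temperature, normalized to DMSO/thiol-only control; first-order decay fits gave rate constants, divided by model-thiol rate for rate enhancement.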
# Cdk2(S276C) (C177A) = biological target: T2, Cdk2(S276C) (C177A) (Homo sapiens, UniProt P24941, C177A/S276C); assay: Kinetic thiol consumption assay with Cdk2 mutant S276C; assay type: binding; set-up: key to Rate enhancement, Cdk2 S276C: rate constant with Cdk2 ÷ rate constant with model thiol (fold); settings: additional mutation C177A; for Rate constant with Cdk2 S276C: Protein: Cdk2, cysteine position S276C, in h^-1
# T2 construct: poly-histidine; made in house; host or cells: E. coli
# Outline: as §1
# Cdk2(R122C) (C177A) = biological target: T3, Cdk2(R122C) (C177A) (Homo sapiens, UniProt P24941, C177A/R122C); assay: Kinetic thiol consumption assay with Cdk2 mutant R122C; assay type: binding; set-up: key to Rate enhancement, Cdk2 R122C: rate constant with Cdk2 ÷ rate constant with model thiol (fold); settings: additional mutation C177A; for Rate constant with Cdk2 R122C: Protein: Cdk2, cysteine position R122C, in h-1
# T3 construct: poly-histidine; made in house; host or cells: E. coli
# Outline: as §1
# Cdk2(S181C) (C177A) = biological target: T4, Cdk2(S181C) (C177A) (Homo sapiens, UniProt P24941, C177A/S181C); assay: Kinetic thiol consumption assay with Cdk2 mutant S181C; assay type: binding; set-up: key to Rate enhancement, Cdk2 S181C: rate constant with Cdk2 ÷ rate constant with model thiol (fold); settings: additional mutation C177A; for Rate constant with Cdk2 S181C: Protein: Cdk2, cysteine position S181C, in h^-1
# T4 construct: poly-histidine; made in house; host or cells: E. coli
# Outline: as §1
# Cdk2(N272C) (C177A) = biological target: T5, Cdk2(N272C) (C177A) (Homo sapiens, UniProt P24941, C177A/N272C); assay: Kinetic thiol consumption assay with Cdk2 mutant N272C; assay type: binding; set-up: key to Rate enhancement, Cdk2 N272: rate constant with Cdk2 ÷ rate constant with model thiol (fold); settings: for Rate enhancement, Cdk2 N272: Cdk2 N272, additional mutation C177A; for Rate constant with Cdk2 N272C: Protein: Cdk2, cysteine position N272C, additional mutation C177A, in h^-1
# T5 construct: poly-histidine; made in house; host or cells: E. coli
# Outline: as §1
# Cdk2(H71C) (C177A) = biological target: T6, Cdk2(H71C) (C177A) (Homo sapiens, UniProt P24941, C177A/H71C); assay: Kinetic thiol consumption assay with Cdk2 mutant H71C; assay type: binding; set-up: key to Rate enhancement, Cdk2 H71C: rate constant with Cdk2 ÷ rate constant with model thiol (fold); settings: additional mutation C177A; for Rate constant with Cdk2 H71C: Protein: Cdk2, cysteine position H71C, in h^-1
# T6 construct: poly-histidine; made in house; host or cells: E. coli
# Outline: as §1
# Cdk2(C177A, F80C) = biological target: T7, Cdk2(C177A, F80C) (Homo sapiens, UniProt P24941, C177A/F80C); assay: Kinetic thiol consumption assay with Cdk2 mutant F80C, incl. kobs versus concentration (Kd, k2); assay type: binding; set-up: key to Rate enhancement, Cdk2 F80C: Cdk2 rate constant divided by model-thiol rate constant; settings: additional mutation C177A; for Rate constant with Cdk2 F80C: Protein: Cdk2, cysteine position F80C, in h^-1
# T7 construct: poly-histidine; made in house; host or cells: E. coli
# Outline: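 His-tagged Cdk2(C177A/F80C) from E. coli or model thiol, 5 μM in degassed phosphate buffer pH 8 with TCEP beads, reacted with acrylamide ligands; fluorescence (ex/em 380/470 nm) normalized to DMSO control and fitted to first-order decay for kobs. Kd and k2 obtained from hyperbolic fit of kobs versus ligand concentration.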
# Cdk2[C177A, F80C, K278C] = biological target: T8, Cdk2[C177A, F80C, K278C] (Homo sapiens, UniProt P24941, C177A/F80C/K278C); assay: Kinetic thiol consumption assay with mutant Cdk2 as model thiol; assay type: binding; set-up: unit not given here; settings: 500 μM ligand, 5 μM thiol, phosphate buffer pH 8
# T8 construct: poly-histidine; made in house; host or cells: E. coli
# Outline: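 Model thiol: His-tagged human Cdk2 C177A/F80C/K278C (two engineered surface cysteines), E. coli-expressed, 5 μM in degassed phosphate buffer pH 8 with immobilized TCEP beads (2% v/v). Fluorescence (ex/em 380/470 nm) followed over time at room temperature, normalized to DMSO/thiol control. First-order decay fit gives rate constants.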
# [1] = biological target: T9, human cyclin-dependent kinase 2 (Cdk2) (Homo sapiens, UniProt P24941); assay: Kinetic thiol consumption assay with wild type Cdk2 (C177); assay type: binding; set-up: key to Rate enhancement, Cdk2 WT: k(Cdk2) divided by k(model thiol); Rate constant with Cdk2 (k(Cdk2)): unit not given here; settings: for Rate constant with Cdk2 (k(Cdk2)): 500 μM ligand, 5 μM thiol, phosphate buffer pH 8; for Rate enhancement, Cdk2 WT: no additional mutations; for Rate constant with Cdk2 WT: Protein: Cdk2, cysteine position WT, in h^-1; for k(Cdk2)/k(Cdk2_mut) rate enhancement: model thiol Cdk2[C177A, F80C, K278C]; for k(Cdk2)/k(GSH) rate enhancement: model thiol glutathione
# T9 construct: poly-histidine; made in house; host or cells: E. coli
# Outline: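 Rate constants came from first-order exponential decay fits of normalized fluorescence against time, with thiol (5 μM) in degassed pH 8 phosphate buffer containing 2% v/v TCEP beads and reads after 1 h at room temperature.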
# [2] = Kinetic thiol consumption assay with model thiol glutathione; assay type: physicochemical; set-up: Rate constant with glutathione (k(GSH)): unit not given here; settings: for Rate constant with glutathione (k(GSH)): 500 μM ligand, 5 μM thiol, phosphate buffer pH 8; for Rate constant with Glutathione: Protein: Glutathione, cysteine position NA, in h-1
# Outline: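 First, 5 μM glutathione in degassed phosphate buffer (pH 8) receives immobilized TCEP beads (2% v/v). Then acrylamide is added and plates incubate 1 h at room temperature. Finally, fluorescence (380/470 nm) is normalized and fitted to first-order decay for rate constants.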
Structure (SMILES),"Rate enhancement, Cdk2 T182C (Cdk2(T182C) (C177A))",Rate constant with Cdk2 T182C (Cdk2(T182C) (C177A)),"Rate enhancement, Cdk2 S276C (Cdk2(S276C) (C177A))",Rate constant with Cdk2 S276C (Cdk2(S276C) (C177A)),"Rate enhancement, Cdk2 R122C (Cdk2(R122C) (C177A))",Rate constant with Cdk2 R122C (Cdk2(R122C) (C177A)),"Rate enhancement, Cdk2 S181C (Cdk2(S181C) (C177A))",Rate constant with Cdk2 S181C (Cdk2(S181C) (C177A)),"Rate enhancement, Cdk2 N272 (Cdk2(N272C) (C177A))",Rate constant with Cdk2 N272C (Cdk2(N272C) (C177A)),"Rate enhancement, Cdk2 H71C (Cdk2(H71C) (C177A))",Rate constant with Cdk2 H71C (Cdk2(H71C) (C177A)),"Rate enhancement, Cdk2 F80C (Cdk2(C177A, F80C))","Rate constant with Cdk2[C177A, F80C, K278C] (k(Cdk2_mut)) (Cdk2[C177A, F80C, K278C])",Rate constant with Cdk2 (k(Cdk2)) [1],"Rate enhancement, Cdk2 WT [1]",Rate constant with Cdk2 WT [1],k(Cdk2)/k(Cdk2_mut) rate enhancement [1],k(Cdk2)/k(GSH) rate enhancement [1],Rate constant with glutathione (k(GSH)) [2],other results
C=CC(=O)Nc1nc2c(s1)CCCCCC2 [CA-170],5.267,0.3786,0.7229,0.05196,0.3489,0.02508,0.4978,0.03578,0.4672,0.03358,0.9221,0.06628,13.67,0.9197,0.2972,4.135,0.2972,0.3231,4.273,0.06955,"Rate constant with Cdk2 F80C (Cdk2(C177A, F80C)): 0.9829; Rate constant with Glutathione [2]: 0.07188"
C=CC(=O)NC1c2ccccc2Oc2ccccc21 [CA-171],13.51,0.09852,0.5204,0.003794,0.2126,0.00155,0.8523,0.006213,1.029,0.007502,0.4785,0.003488,0,0.00127,0.00423,1.547,0.01128,3.343,1.018,0.00416,Rate constant with Glutathione [2]: 0.00729
C=CC(=O)N1CC(n2cccn2)C1 [CA-173],2.778,0.04347,1.187,0.01857,0.3379,0.005288,1.349,0.02111,0.6511,0.01019,0.1755,0.002746,0.3401,0.00504,0.00754,0.4816,0.007537,1.495,0.4779,0.01577,"Rate constant with Cdk2 F80C (Cdk2(C177A, F80C)): 0.005323; Rate constant with Glutathione [2]: 0.01565"
C=CC(=O)N(Cc1ccco1)Cc1cc2cc(C)ccc2o1 [CA-178],2.909,0.4599,2.953,0.4669,1.616,0.2555,0.8912,0.1409,3.356,0.5306,5.546,0.8769,1.581,0.6107,0.1507,0.9532,0.1507,0.2468,1.065,0.1415,"Rate constant with Cdk2 F80C (Cdk2(C177A, F80C)): 0.2499; Rate constant with Glutathione [2]: 0.1581"
C=CC(=O)N1CCN(c2cc(N3CCOCC3)ncn2)CC1 [CA-179],7.042,0.0479,1.169,0.007953,0.6453,0.004389,2.608,0.01774,0.4,0.002721,1.062,0.007227,0.3927,0.00719,0.0076,1.117,0.007599,1.056,1.112,0.00683,"Rate constant with Cdk2 F80C (Cdk2(C177A, F80C)): 0.002671; Rate constant with Glutathione [2]: 0.006802"
